The source of these data is PMC8924752, “Functional characterization of the human Cdk10/Cyclin Q complex” (Open Biology, 2022).

Assay [1] has as its target T1, Cdk10/CycQ (Homo sapiens, UniProt Q15131).
T1 construct: We expressed the human full-length Cdk10/CycQ complex in Sf9 insect cells; MBP (followed by TEV site) (N, cleaved yes); made in house; host or cells: Sf9 insect cells (baculovirus); c-MYC substrate from E. coli BL21 pLysS
The assay is described as follows: Radiometric kinase assay, inhibition of Cdk10/CycQ (c-MYC substrate). The following applies: for Cross reactivity with Cdk10 (effect of inhibitor on Cdk10): at conditions that result in full inhibition of their primary target, supplementary figure S3; for Times more potent towards Cdk9 than Cdk10: ratio of IC50 values Cdk10 vs Cdk9. The format is biochemical. As to the method:
Figure 3. […] (a) Chemical structures of the inhibitors tested against Cdk10/CycQ.
Kinase assays with recombinant proteins were performed in kinase assay buffer (50 mM Hepes pH7.6, 34 mM KCl, 7 mM MgCl2, 5 mM β-Glycerophosphate, 2.5 mM DTE). If not indicated otherwise, reactions contained 0.2 µM kinase, were started by the addition of ATP to 1 mM final concentration and incubated at 30°C in a shaking incubator.
For quantitative analysis, radioactive kinase assays were performed. Reactions were done in a total volume of 15 µl per sample. If not indicated otherwise, reactions contained 0.2 µM kinase, were started by addition of ATP to 1 mM containing 0.34 µCi γ[^32P] (Perkin Elmer) and incubated at 30°C in a shaking incubator. Reactions were stopped by adding EDTA to a final concentration of 50 mM. Samples were spotted onto Amersham Protran nitrocellulose membrane (GE Healthcare) filter sheets. Filters were washed three times for 5 min with PBS to remove free, non-reacted ATP. Samples were transferred to 4 ml liquid scintillation vials and immersed in 2 ml liquid scintillator (UltimaGold). Radioactivity was counted in a Beckman Liquid Scintillation Counter (Beckman-Coulter) for 1 min.
All compounds were solved at a stock concentration of 10 mM in DMSO and further pre-diluted in DMSO for dose–response measurement. For IC50 determination radioactive kinase assays were run as described above in presence of increasing concentration of inhibitor. For analysis, the data were normalized to the DMSO solvent control and the activity plotted against the inhibitor concentration. IC50 values were determined from duplicate measurements by sigmoidal curve fitting with a variable slope using GraphPadPrism, v.

The target in assay [2] is T1, Cdk10/CycQ. Described as above. The format is biochemical. The conditions noted are these: 200 nM kinase, 1 mM ATP, 5 mM Mg2+, 50 µM c-MYC (17-167) as substrate.
Assay [3] deals with Cdk10. Set-up: method as in PMID 29251720. The conditions noted are these: cited from earlier work.
The test system of assay [4] is Cdk10. Set-up: method as in PMID 29251720. The following applies: MOLT4 lysates; cited from earlier work.
The target in another assay is T2, Cdk9 (Homo sapiens, UniProt P50750).
T2 construct: His; made in house; host or cells: Cdk9 in Sf9 insect cells; CycT1 (1-272) in E. coli
The assay is described as follows: Radiometric kinase assay, inhibition of Cdk9 (c-MYC substrate). The assay is classed as biochemical. The following applies: 200 nM kinase, 1 mM ATP, 5 mM Mg2+, 50 µM c-MYC (17-167) as substrate.

The structures appear in SMILES notation.

The IC50 is the concentration that gives 50% inhibition. Higher therefore signals weaker potency.

T1 sequence (Q15131 whole entry): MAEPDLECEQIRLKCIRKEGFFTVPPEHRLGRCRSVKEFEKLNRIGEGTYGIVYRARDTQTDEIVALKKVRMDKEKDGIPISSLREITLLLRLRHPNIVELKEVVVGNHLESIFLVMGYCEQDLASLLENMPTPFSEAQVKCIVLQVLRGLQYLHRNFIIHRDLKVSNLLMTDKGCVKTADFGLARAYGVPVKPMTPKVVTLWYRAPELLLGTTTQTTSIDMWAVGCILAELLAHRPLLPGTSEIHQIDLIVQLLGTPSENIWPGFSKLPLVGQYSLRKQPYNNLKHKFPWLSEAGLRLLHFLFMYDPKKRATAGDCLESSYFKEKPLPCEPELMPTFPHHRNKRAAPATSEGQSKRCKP
T1 sequence (Q8N1B3 whole entry partner): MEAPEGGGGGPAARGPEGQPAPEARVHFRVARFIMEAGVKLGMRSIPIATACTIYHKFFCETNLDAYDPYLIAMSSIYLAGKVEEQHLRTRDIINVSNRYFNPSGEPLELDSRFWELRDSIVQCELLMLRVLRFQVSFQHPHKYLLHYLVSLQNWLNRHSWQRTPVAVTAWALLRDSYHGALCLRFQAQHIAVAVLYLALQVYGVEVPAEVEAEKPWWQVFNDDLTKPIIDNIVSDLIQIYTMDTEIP
T2 sequence (P50750 whole entry, species assumed): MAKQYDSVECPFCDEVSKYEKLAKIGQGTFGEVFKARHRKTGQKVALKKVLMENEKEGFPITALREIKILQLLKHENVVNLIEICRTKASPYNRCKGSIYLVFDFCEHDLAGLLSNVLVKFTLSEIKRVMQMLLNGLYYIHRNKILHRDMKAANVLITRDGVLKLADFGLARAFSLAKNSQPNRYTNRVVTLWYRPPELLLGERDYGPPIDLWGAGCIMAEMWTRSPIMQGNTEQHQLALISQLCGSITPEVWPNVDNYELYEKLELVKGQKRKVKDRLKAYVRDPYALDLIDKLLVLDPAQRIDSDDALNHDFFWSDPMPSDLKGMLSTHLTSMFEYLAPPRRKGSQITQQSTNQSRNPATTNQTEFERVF
T2 sequence (O60563 1-272 partner limits assumed, species assumed): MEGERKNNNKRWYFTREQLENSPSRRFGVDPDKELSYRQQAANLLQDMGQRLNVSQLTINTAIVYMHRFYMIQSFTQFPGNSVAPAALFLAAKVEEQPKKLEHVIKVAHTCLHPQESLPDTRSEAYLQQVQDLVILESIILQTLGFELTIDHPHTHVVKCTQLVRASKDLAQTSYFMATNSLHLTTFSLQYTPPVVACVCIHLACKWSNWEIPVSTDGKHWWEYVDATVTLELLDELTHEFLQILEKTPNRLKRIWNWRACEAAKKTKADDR

For the compound `CCN1CCN(Cc2ccc(Nc3ncc(F)c(-c4cc(F)c5nc(C)n(C(C)C)c5c4)n3)nc2)CC1` [abemaciclib], the “Cross reactivity with Cdk10 (effect of inhibitor on Cdk10)” value at Cdk10/CycQ [1] was “did not observe any considerable effect”.
As to `CCc1cnn2c(NCc3ccc[n+]([O-])c3)cc(N3CCCC[C@H]3CCO)nc12` [dinaciclib], the “Times more potent towards Cdk9 than Cdk10” value at Cdk10/CycQ [1] is reported as “at least 5 times”. The compound also registered a concentration for half-maximal inhibition (IC50) against Cdk10/CycQ [2] of 298 nM.
`CC(C)(C)c1cnc(CSc2cnc(NC(=O)C3CCN(CC(=O)NCCOCCOCCOCCNc4cccc5c4C(=O)N(C4CCC(=O)NC4=O)C5=O)CC3)s2)o1` (centres unmarked) [THAL-SNS-032]: the “Degradation of Cdk10” value in the assay on Cdk10 [3] is reported as “degrades Cdk10 only after a longer incubation period”.
As to `CC(=O)c1c(C)c2cnc(Nc3ccc(N4CCNCC4)cn3)nc2n(C2CCCC2)c1=O` [palbociclib], the “Cross reactivity with Cdk10 (effect of inhibitor on Cdk10)” value on Cdk10/CycQ [1] was “did not observe any considerable effect”.
Take `CC(C)(C)c1cnc(CSc2cnc(NC(=O)C3CCNCC3)s2)o1` [SNS-032]: the “Times more potent towards Cdk9 than Cdk10” value at Cdk10/CycQ [1] was “at least 5 times”. Further, the “Binding to Cdk10” value in the assay with Cdk10 [4] is “identified binding to Cdk10”.
On to `COCC(C)NC1CCC(Nc2cc(-c3cccc(NCC4(C#N)CCOCC4)n3)c(Cl)cn2)CC1` (centres unmarked) [NVP-2], for which the “Times more potent towards Cdk9 than Cdk10” value on Cdk10/CycQ [1] is reported as “at least 5 times”. Moreover, the results for the IC50 on Cdk9 and against Cdk10/CycQ [2] were 58 nM and 1040 nM, respectively. For the same compound, the “Binding to Cdk10” value in the assay on Cdk10 [4] is on record as “identified binding to Cdk10”.
As to `CN(C)C/C=C/C(=O)Nc1ccc(C(=O)Nc2cccc(Nc3ncc(Cl)c(-c4c[nH]c5ccccc45)n3)c2)cc1` [THZ-1], on Cdk10/CycQ [1], the “Cross reactivity with Cdk10 (effect of inhibitor on Cdk10)” value is recorded as “did not observe any considerable effect”.
On to `C=CC(=O)Nc1ccc(C(=O)Nc2[nH]nc3c2CN(C(=O)N[C@H](CN(C)C)c2ccccc2)C3(C)C)cc1` [YKL-5-124], for which the “Cross reactivity with Cdk10 (effect of inhibitor on Cdk10)” value at Cdk10/CycQ [1] is “did not observe any considerable effect”.
With `CN(C)C/C=C/C(=O)Nc1ccc(C(=O)N2CCC[C@@H](Nc3ncc(Cl)c(-c4c[nH]c5ccccc45)n3)C2)cc1` [THZ-531], the “Cross reactivity with Cdk10 (effect of inhibitor on Cdk10)” value on Cdk10/CycQ [1] is “did not observe any considerable effect”.
On to `CN1CC[C@H](c2c(O)cc(O)c3c(=O)cc(-c4ccccc4Cl)oc23)[C@H](O)C1` [flavopiridol], for which, on Cdk10/CycQ [1], the “Times more potent towards Cdk9 than Cdk10” value was “at least 5 times”.
In the case of `Cc1cc(O)c(-c2ccc([C@@H](C)CN(C)C)cc2)c2c1[nH]c(=O)c1sccc12` [OTS964], the half-inhibitory concentration (IC50) at Cdk9 worked out at 138000 nM; against Cdk10/CycQ [2] it was 5370 nM.
